Test results: patent US7132231B2, “Fluorescence polarization method for determining viral inhibitors” (priority 2001, dated 2006)

Key:
[1] = target: T1, Pol/UL42 long-chain DNA synthesis (HSV Pol + HSV MBP-UL42) (Human herpesvirus 1, UniProt P10226); experiment: DNA polymerase long-chain synthesis assay; format: biochemical, herpes simplex virus; details: for ability of UL42 to stimulate long-chain synthesis by Pol: FIG. 4, BP1, BP3, BP5 at 30 μM, BP9 at 100, 75, 50, 25 and 12 μM
T1 construct: in presence of the whole catalytic subunit; made in house; host or cells: UL42 fusion: E. coli BL21(de3)pLysS
Method: (§1) DNA polymerase long-chain synthesis assay. Compounds which elicited a decrease in the fluorescence polarization, when compared to control values, were tested for the ability to inhibit long-chain DNA synthesis via inhibition of polymerase subunit assembly [Digard et al. 1995; Bridges et al. 2001] using a poly-A template (Amersham Pharmacia) and an oligo-dT primer (Roche Molecular Biochemicals) on which Pol alone adds only a few bases. Reaction mixtures (50 mM Tris-HCl pH 7.5, 100 mM ammonium sulfate, 3 mM MgCl2, 0.1 mM EDTA, 1 mM DTT, 4% Glycerol, 40 ug ml^−1 BSA, 100 ug ml^−1 primer/template, 50 uM α-^32P-TTP (111 TBq/mmol; NEN Life Science products)), contained 200 fmol of HSV Pol ([Weisshart et al. 1994]), 400 fmol of HSV MBP-UL42 and varying amounts of compound in a final volume of 25 ul. Reactions were carried out at 37° C. for 5 minutes and stopped by adding 5 ul of alkaline loading buffer (2mM EDTA, 50mM NaOH, 2.5% glycerol, 0.025% bromocresol green) and placing them on ice and were then loaded onto an 4% alkaline agarose gel. Gels were dried over night and exposed to phosphorescence screens (BioRad). Catalytic subunit activity filter binding assay. Compounds which elicited a decrease in fluorescence polarization were tested for the ability to inhibit DNA synthesis by Pol alone using the oligo-(dT)/poly-(dA) primer-template. Reaction mixtures (50 mM TrisHCl pH 7.5, 100 mM ammonium sulfate, 3 mM MgCl2, 0.1 mM EDTA, 1 mM DTT, 4% Glycerol, 40 μg ml^31 1 BSA, 100 μg ml^−1 primer/template, 50 μM α-^32P-TTP (111 TBq/mmol)) contained 200 fmol of HSV Pol and various amounts of each compound in a final volume of 25 μl. Reactions were carried out at 37° C. for 25 minutes and stopped by placing 10 μl of the reaction mix onto DE81 filter discs. After washes in sodium hydrogen phosphate, water and ethanol, they were counted in a liquid scintillation analyzer (Packard 1600 TR). Plaque reduction assay. Confluent monolayers of Vero (African green monkey kidney) cells in 12-well dishes were infected with herpes virus strain 17 dilutions such that each well received between 25 and 50 PFU. Diluted virus was absorbed to cells in 2 ml Dulbecco's modified Eagle's medium containing 2.5% newborn calf serum, 100 U penicillin G ml^−1 and 100 ug streptomycin sulfate ml^−1 for 1 hour at 37° C. in a humidified CO2 incubator. After absorption, triplicate infected cultures were overlaid with 2% methyl cellulose in Dulbecco's modified Eagle's medium containing 5% newborn calf serum, 100 U penicillin G ml^−1, 100 ug streptomycin sulfate ml^−1 and various concentrations of the compounds which elicited a decrease in fluorescence polarization and incubated at 37° C. in a humidified CO2 incubator. Plaques were visualized by crystal violet staining at 2 to 3 days post infection and were counted on the following day [Coen et al. 1985]. Cytotoxicity assays. Vero cells (5×10^4 cells per well) were seeded into 96-well plates and treated with various concentrations of the compounds (which elicited a decrease in the fluorescence polarization) for 72 h in quadruplicates. […] In parallel, equally compound-treated cells were fixed by adding 95% ethanol, stained with crystal violet solution and washed. After addition of 100 ul acidified ethanol (EtOH:HCl=99:1) to dissolve the crystal violet, the plates were read in the plate reader (Wallac). Viral yield assay. Vero cells were seeded into 96-well (5×10^4 cells per well) tissue culture plates in 0.2 ml Dulbecco's modified Eagle's medium containing 2.5% newborn calf serum and 100 U penicillin G ml^−1. Cultures were inoculated with HSV strain 17 at an MOI of 5 PFU per cell. The virus inoculum was replaced after two hours with medium containing dilution series of test compounds and left for 24 hours. After two cycles of freeze-thawing, each drug dilution row was transferred to a freshly seeded 96-well plate and serially 1:3 diluted over the whole plate. After two days, plaques were stained and counted under a microscope [Pritchard et al. 1990]. […]

[2] = target: T2, Pol/UL42 interaction (Oregon Green-peptide E / MBP-UL42Δ340) (Human herpesvirus 1, UniProt P10226); experiment: Fluorescence polarization (FP) assay of Pol peptide/UL42 binding; set-up: species or system herpes simplex virus; details: for dose dependent change in the FP signal: serial dilution, FIG. 3
T2 construct: made in house; host or cells: E. coli BL21(de3)pLysS (UL42Δ340 fusion); peptide E synthetic
Method: Peptide probe and MBP-UL42. A peptide comprising the 18 C-terminal amino acids of HSV Pol (peptide E) was synthesized, N-terminally labeled with the pentafluorofluorescein-derivative Oregon Green 514 (Molecular Probes) and HPLC-purified. A truncated version of UL42 (UL42Δ340) was expressed in BL21(de3)pLysS E.coli as maltose binding protein fusion as described [Bridges et al. 2001] and purified over an amylose column (New England Biolabs). […] After elution with 10 mM maltose in 50 mM TrisHCl, 1 mM DTT, 0.5 mM EDTA, 4% Glycerol, 200 mM NaCl and Complete™ protease inhibitors (Roche Molecular Biochemicals), the protein was concentrated when necessary and stored at −80° C. until further use. After thawing, the purification buffer was exchanged to low fluorescent grade reagents (PanVera) and maltose was removed simultaneously using 10-DG Bio-Gel columns (BioRad). Fluorescence polarization assays. 1 nM of Oregon Green-peptide E was added to 7 uM MBP-UL42Δ340 and kept on ice until the mix was distributed into black 384-well plates (LJL Biosystems) in a total volume of 20 ul per well. The buffer conditions were 50 mM TrisHCl pH 7.5, 1 mM DTT, 0.5 mM EDTA, 150 mM NaCl, 4% Glycerol and 100 ug ml^−1 bovine gamma globulin. All chemicals were low fluorescent grade (PanVera).
Using this assay, the 16,320 compound Chembridge library that had been purchased by the Harvard Institute of Chemistry and Cell Biology (ICBB) was screened. Small molecules (5 mg ml^−1 in DMSO; ChemBridge) were screened using 384-pin arrays (Genetix), and 40 nl of each compound was transferred into every well. After incubation between 5 and 45 minutes at room temperature, the FP values were determined in the Analyst plate reader (LJL Biosystems). Chemicals for further testing were obtained from ChemBridge.
DNA polymerase long-chain synthesis assay. Compounds which elicited a decrease in the fluorescence polarization, when compared to control values, were tested for the ability to inhibit long-chain DNA synthesis via inhibition of polymerase subunit assembly [Digard et al. 1995; Bridges et al. 2001] using a poly-A template (Amersham Pharmacia) and an oligo-dT primer (Roche Molecular Biochemicals) on which Pol alone adds only a few bases. Reaction mixtures (50 mM Tris-HCl pH 7.5, 100 mM ammonium sulfate, 3 mM MgCl2, 0.1 mM EDTA, 1 mM DTT, 4% Glycerol, 40 ug ml^−1 BSA, 100 ug ml^−1 primer/template, 50 uM α-^32P-TTP (111 TBq/mmol; NEN Life Science products)), contained 200 fmol of HSV Pol ([Weisshart et al. 1994]), 400 fmol of HSV MBP-UL42 and varying amounts of compound in a final volume of 25 ul. Reactions were carried out at 37° C. for 5 minutes and stopped by adding 5 ul of alkaline loading buffer (2mM EDTA, 50mM NaOH, 2.5% glycerol, 0.025% bromocresol green) and placing them on ice and were then loaded onto an 4% alkaline agarose gel. Gels were dried over night and exposed to phosphorescence screens (BioRad). Catalytic subunit activity filter binding assay. Compounds which elicited a decrease in fluorescence polarization were tested for the ability to inhibit DNA synthesis by Pol alone using the oligo-(dT)/poly-(dA) primer-template. Reaction mixtures (50 mM TrisHCl pH 7.5, 100 mM ammonium sulfate, 3 mM MgCl2, 0.1 mM EDTA, 1 mM DTT, 4% Glycerol, 40 μg ml^31 1 BSA, 100 μg ml^−1 primer/template, 50 μM α-^32P-TTP (111 TBq/mmol)) contained 200 fmol of HSV Pol and various amounts of each compound in a final volume of 25 μl. Reactions were carried out at 37° C. for 25 minutes and stopped by placing 10 μl of the reaction mix onto DE81 filter discs. After washes in sodium hydrogen phosphate, water and ethanol, they were counted in a liquid scintillation analyzer (Packard 1600 TR). Plaque reduction assay. Confluent monolayers of Vero (African green monkey kidney) cells in 12-well dishes were infected with herpes virus strain 17 dilutions such that each well received between 25 and 50 PFU. […]

HSV Pol [3] = target: T3, HSV Pol (Human herpesvirus 1, UniProt P04293, N46K); experiment: Catalytic subunit activity filter binding assay (Pol alone); format: biochemical, herpes simplex virus; details: at higher compound concentrations, FIG. 5
T3 construct: in presence of the whole catalytic subunit
Method: as §1

HSV Pol [4] = target: T4, HSV Pol (Human herpesvirus 1, UniProt P04293); experiment: as above; format: biochemical, herpes simplex virus
T4 construct: in presence of the whole catalytic subunit
Method: as §1

[5] = Cytotoxicity assay (XTT / crystal violet); format: cell-based, African green monkey; details: monkey; for CC50 at 72 h: Vero cells, read-out: Toxicity IC50
Method: as §1, with “Vero cells were seeded into 96-well (5×10^4 cells per well) tissue culture plates in 0.2 ml Dulbecco's modified Eagle's medium containing 2.5% newborn calf serum and 100 U penicillin G ml^−1. Cultures were inoculated with HSV strain 17 at an MOI of 5 PFU per cell. The virus inoculum was replaced after two hours with medium containing dilution series of test compounds and left for 24 hours. After two cycles of freeze-thawing, each drug dilution row was transferred to a freshly seeded 96-well plate and serially 1:3 diluted over the whole plate.” left out

herpes virus strain 17 = experiment: Plaque reduction assay; format: cell-based, herpes simplex virus; details: Vero cells, data not shown
Method: (§2) DNA polymerase long-chain synthesis assay. Compounds which elicited a decrease in the fluorescence polarization, when compared to control values, were tested for the ability to inhibit long-chain DNA synthesis via inhibition of polymerase subunit assembly [Digard et al. 1995; Bridges et al. 2001] using a poly-A template (Amersham Pharmacia) and an oligo-dT primer (Roche Molecular Biochemicals) on which Pol alone adds only a few bases. […] Compounds which elicited a decrease in fluorescence polarization were tested for the ability to inhibit DNA synthesis by Pol alone using the oligo-(dT)/poly-(dA) primer-template. […] After washes in sodium hydrogen phosphate, water and ethanol, they were counted in a liquid scintillation analyzer (Packard 1600 TR). […] After absorption, triplicate infected cultures were overlaid with 2% methyl cellulose in Dulbecco's modified Eagle's medium containing 5% newborn calf serum, 100 U penicillin G ml^−1, 100 ug streptomycin sulfate ml^−1 and various concentrations of the compounds which elicited a decrease in fluorescence polarization and incubated at 37° C. in a humidified CO2 incubator. Plaques were visualized by crystal violet staining at 2 to 3 days post infection and were counted on the following day [Coen et al. 1985]. […] After addition of 100 ul acidified ethanol (EtOH:HCl=99:1) to dissolve the crystal violet, the plates were read in the plate reader (Wallac). […]

HSV strain 17 = experiment: Viral yield assay; format: cell-based, herpes simplex virus; details: Vero cells, MOI of 5, 24 h; read-out: ED90 viral yield reduction
Method: as §2

[6] = test system: Pol/UL42 long-chain DNA synthesis (HSV Pol + HSV MBP-UL42); details: literature values [Digard et al. 1995; Bridges et al. 2000]; read-out: IC50 for specific inhibition of UL42 stimulated long-chain DNA synthesis; cited from earlier work

T1 sequence (P10226 1-339): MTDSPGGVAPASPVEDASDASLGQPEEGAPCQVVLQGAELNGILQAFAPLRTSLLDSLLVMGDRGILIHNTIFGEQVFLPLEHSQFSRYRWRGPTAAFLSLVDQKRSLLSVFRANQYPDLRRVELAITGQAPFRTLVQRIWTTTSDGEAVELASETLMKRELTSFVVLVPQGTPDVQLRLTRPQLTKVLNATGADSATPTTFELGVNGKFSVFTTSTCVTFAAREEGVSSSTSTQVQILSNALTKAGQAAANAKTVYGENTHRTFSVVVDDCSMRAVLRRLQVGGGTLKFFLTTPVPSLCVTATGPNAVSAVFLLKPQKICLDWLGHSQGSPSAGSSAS
T2 sequence (P10226 1-339, stated change not applied): as the sequence (P10226 1-339) above
T3 sequence (P04293 whole entry N46K): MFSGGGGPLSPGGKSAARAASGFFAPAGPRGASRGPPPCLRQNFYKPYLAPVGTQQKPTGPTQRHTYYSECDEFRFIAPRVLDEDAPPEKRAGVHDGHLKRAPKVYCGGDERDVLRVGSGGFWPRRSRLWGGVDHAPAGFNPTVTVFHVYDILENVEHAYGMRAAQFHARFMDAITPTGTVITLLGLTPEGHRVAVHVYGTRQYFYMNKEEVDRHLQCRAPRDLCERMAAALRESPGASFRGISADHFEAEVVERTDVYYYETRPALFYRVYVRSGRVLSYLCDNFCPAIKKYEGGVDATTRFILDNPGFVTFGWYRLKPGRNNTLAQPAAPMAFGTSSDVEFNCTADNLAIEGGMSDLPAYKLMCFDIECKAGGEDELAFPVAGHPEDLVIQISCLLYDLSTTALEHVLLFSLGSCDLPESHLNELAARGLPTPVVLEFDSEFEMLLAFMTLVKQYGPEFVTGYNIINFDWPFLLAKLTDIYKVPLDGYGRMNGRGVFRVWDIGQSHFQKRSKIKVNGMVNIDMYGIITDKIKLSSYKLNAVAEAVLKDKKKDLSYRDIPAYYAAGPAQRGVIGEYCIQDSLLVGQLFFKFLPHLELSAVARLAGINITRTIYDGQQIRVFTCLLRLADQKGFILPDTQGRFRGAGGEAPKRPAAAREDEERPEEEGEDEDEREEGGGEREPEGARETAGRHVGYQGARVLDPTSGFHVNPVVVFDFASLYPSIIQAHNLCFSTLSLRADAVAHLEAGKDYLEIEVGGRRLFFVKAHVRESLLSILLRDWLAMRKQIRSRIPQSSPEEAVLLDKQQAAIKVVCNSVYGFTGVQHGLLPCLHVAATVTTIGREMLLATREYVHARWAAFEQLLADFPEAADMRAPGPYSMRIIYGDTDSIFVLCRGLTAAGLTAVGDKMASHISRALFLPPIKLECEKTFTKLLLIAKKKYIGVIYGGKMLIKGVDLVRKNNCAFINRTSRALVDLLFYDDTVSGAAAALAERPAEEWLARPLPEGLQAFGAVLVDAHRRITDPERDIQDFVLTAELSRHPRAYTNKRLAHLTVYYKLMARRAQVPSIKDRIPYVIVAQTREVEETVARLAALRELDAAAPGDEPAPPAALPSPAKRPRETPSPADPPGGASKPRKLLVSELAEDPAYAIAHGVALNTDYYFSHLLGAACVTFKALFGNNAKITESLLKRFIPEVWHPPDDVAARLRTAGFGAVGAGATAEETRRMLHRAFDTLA
T4 sequence (P04293 whole entry N46K): as above

Molecule	IC50 [1] [µM]	ability of UL42 to stimulate long-chain synthesis by Pol [1]	IC50 [2] [µM]	dose dependent change in the FP signal [2]	Pol activity in absence of UL42 (HSV Pol [3])	IC50 (HSV Pol [4]) [µM]	CC50 at 72 h [5] [µM]	plaque formation (herpes virus strain 17)	EC90 (HSV strain 17) [µM]	CC50 ([5]; vero cells, Vero cell line, read-out: 50% toxic dose) [µM]	IC50 [6] [µM]
Cc1ccc(C(C)C)cc1OCC(=O)NN=Cc1cc([N+](=O)[O-])ccc1O [BP1]	25	greatly reduced	35	dose dependent change	did not show a significant change	> 100	20				
CC(C)C(C(=O)O)N1C(=O)/C(=C/c2ccc(Cl)cc2Cl)SC1=S (stereo not drawn) [BP3]	30	greatly reduced	12	dose dependent change	significantly reduced	25	200				
O=C(Nc1cccc2nsnc12)c1cc(Br)ccc1NS(=O)(=O)c1ccc(Cl)cc1 [BP5]	26	greatly reduced	15	dose dependent change	did not show a significant change	> 100	50	completely abolish	0.4	50	
CSCCC(C(=O)O)N1C(=O)/C(=C/c2ccc(Cl)cc2Cl)SC1=S (stereo not drawn) [BP9]	25	greatly reduced	48	dose dependent change	significantly reduced	25	200				
CSCC[C@H](NC(=O)[C@H](CCCNC(=N)N)NC(=O)[C@H](CCCNC(=N)N)NC(=O)[C@@H](NC(=O)[C@H](CCC(=O)O)NC(=O)[C@H](CCC(=O)O)NC(=O)[C@H](C)NC(=O)[C@@H](NC(=O)[C@H](C)NC(=O)CNC(=O)[C@H](C)NC(=O)CNC(=O)[C@@H](NC(=O)[C@H](C)NC(=O)CNC(=O)[C@H](Cc1ccccc1)NC(=O)CNC(=O)[C@H](C)NC(=O)[C@@H](NC(=O)[C@H](CCCNC(=N)N)NC(=O)[C@H](CC(C)C)NC(=O)[C@H](CCCNC(=N)N)NC(=O)[C@H](C)NC(=O)[C@H](C)NC(=O)[C@@H](NC(=O)[C@H](CC(=O)O)NC(=O)[C@H](CC(=O)O)NC(C)=O)C(C)C)[C@@H](C)O)C(C)C)[C@@H](C)O)[C@@H](C)O)C(=O)N[C@@H](CC(C)C)C(=O)N[C@@H](Cc1c[nH]cn1)C(=O)N[C@@H](CCCNC(=N)N)C(=O)N[C@@H](C)C(=O)N[C@@H](Cc1ccccc1)C(=O)N[C@@H](CC(=O)O)C(=O)N[C@H](C(=O)N[C@@H](CC(C)C)C(=O)N[C@@H](C)C(N)=O)[C@@H](C)O [peptide A]											3
ATAEEETRRMLHRAFDTLA [peptide E, Ac-Ala-Thr-Ala-Glu-Glu-Glu-Thr-Arg-Arg-Met-Leu-His-Arg-Ala-Phe-Asp-Thr-Leu-Ala-NH2]											11
